The results in this text go back to PubChem BioAssay AID330 (DTP/NCI, 2004).

Where “and” joins values, the source holds several entries; their conditions need not be identical. Equal entries are not always repeated. Inconclusive results and toxic doses are left out. Peptide text beside a SMILES is read from it. * marks the point of attachment. Cbz = O=C(OCc1ccccc1)*

This assay relates to P388 leukemia ip, CD2F1 mice, survival T/C. The experiment in a line: NCI In Vivo Anticancer Drug Screen. Data for tumor model P388 Leukemia (intraperitoneal) in CD2F1 (CDF1) mice. As to conditions: endpoint: median survival time, higher = longer survival. An outline of the steps:
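Mice carrying the transplanted tumor received test compound or vehicle. Survival was recorded in each group, and the value is the treated-group measurement divided by that of the vehicle-treated control group.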

[1] abbreviates: dose: 25.0 mg/kg/injection, schedule: Q01DX009 (ip), vehicle: saline.
The mark [2] stands for this setting: dose: 50.0 mg/kg/injection, schedule: Q01DX009 (ip), vehicle: saline.
Setting [3] is: dose: 100.0 mg/kg/injection, schedule: Q04DX002 (ip), vehicle: saline.
The mark [4] stands for this setting: dose: 200.0 mg/kg/injection, schedule: Q04DX002 (ip), vehicle: saline.
[5] abbreviates: dose: 400.0 mg/kg/injection, schedule: Q04DX002 (ip), vehicle: saline.
Where [6] appears, read: dose: 60.0 mg/kg/injection, schedule: Q01DX005 (ip), vehicle: Klucel (hydroxypropylcellulose) (HPC).
The mark [7] stands for this setting: dose: 120.0 mg/kg/injection, schedule: Q01DX005 (ip), vehicle: Klucel (hydroxypropylcellulose) (HPC).
The mark [8] stands for this setting: dose: 240.0 mg/kg/injection, schedule: Q01DX005 (ip), vehicle: Klucel (hydroxypropylcellulose) (HPC).
Where [9] appears, read: dose: 50.0 mg/kg/injection, schedule: Q01DX009 (ip), vehicle: saline with Tween-80.
Where [10] appears, read: dose: 100.0 mg/kg/injection, schedule: Q01DX009 (ip), vehicle: saline with Tween-80.
Where [11] appears, read: dose: 200.0 mg/kg/injection, schedule: Q01DX009 (ip), vehicle: saline with Tween-80.
[12] abbreviates: dose: 12.5 mg/kg/injection, schedule: Q01DX009 (ip), vehicle: saline with Tween-80.

`CC(NS(=O)(=O)c1ccccc1)c1ccccc1` (stereo not given): the T/C reads like this: (dose: 100.0 mg/kg/injection, schedule: Q04DX003 (ip), vehicle: Klucel (hydroxypropylcellulose) (HPC)) 100 % of control; (dose: 200.0 mg/kg/injection, schedule: Q04DX003 (ip), vehicle: Klucel (hydroxypropylcellulose) (HPC)) 106 % of control; (dose: 400.0 mg/kg/injection, schedule: Q04DX003 (ip), vehicle: Klucel (hydroxypropylcellulose) (HPC)) 113 % of control.
For the molecule `CCCCCCCCCCCC(=O)N(CCO)CCc1ccccc1`, the T/C is 101 % of control and 91 % of control under setting [1]; 101 % of control and 109 % of control and 95 % of control under setting [2]; 100 % of control and 103 % of control (dose: 100.0 mg/kg/injection, schedule: Q01DX009 (ip), vehicle: saline); 103 % of control and 110 % of control (dose: 200.0 mg/kg/injection, schedule: Q01DX009 (ip), vehicle: saline).
For the molecule `COc1c(Cl)c2c(c(OC)c1OC)-c1ccc(OC)c(=O)cc1C(NC(C)=O)CC2` (stereo not given), the T/C (dose: 0.78 mg/kg/injection, schedule: Q01DX009 (ip), vehicle: Klucel (hydroxypropylcellulose) (HPC)) was 151 % of control; the T/C (dose: 1.56 mg/kg/injection, schedule: Q01DX009 (ip), vehicle: Klucel (hydroxypropylcellulose) (HPC)) was 179 % of control and 188 % of control; the T/C (dose: 3.12 mg/kg/injection, schedule: Q01DX009 (ip), vehicle: Klucel (hydroxypropylcellulose) (HPC)) was 199 % of control.
Consider `N#Cc1cc2cc3c4c(c2oc1=O)CCCN4CCC3`, for which the T/C is 95 % of control (dose: 50.0 mg/kg/injection, schedule: Q01DX005 (ip), vehicle: Klucel (hydroxypropylcellulose) (HPC)); 94 % of control (dose: 100.0 mg/kg/injection, schedule: Q01DX005 (ip), vehicle: Klucel (hydroxypropylcellulose) (HPC)); 95 % of control (dose: 200.0 mg/kg/injection, schedule: Q01DX005 (ip), vehicle: Klucel (hydroxypropylcellulose) (HPC)).
In the case of `COC(=O)C(CCl)NC(C)=O` (stereo not given), the T/C is 97 % of control (dose: 50.0 mg/kg/injection, schedule: Q01DX005 (ip), vehicle: saline); 100 % of control (dose: 100.0 mg/kg/injection, schedule: Q01DX005 (ip), vehicle: saline); 101 % of control (dose: 200.0 mg/kg/injection, schedule: Q01DX005 (ip), vehicle: saline).
For `COc1cc2c(cc1OC)C(CS(C)=O)Cc1cc(OC)c(OC)cc1N(C)CCC2` (stereo not given), the T/C (dose: 100.0 mg/kg/injection, schedule: Q04DX003 (ip), vehicle: saline with Tween-80) is 93 % of control; the T/C (dose: 200.0 mg/kg/injection, schedule: Q04DX003 (ip), vehicle: saline with Tween-80) was 87 % of control; the T/C (dose: 400.0 mg/kg/injection, schedule: Q04DX003 (ip), vehicle: saline with Tween-80) is 100 % of control.
Consider `O=C1CN(CCN2CC(=O)N(CN3CCOCC3)C(=O)C2)CC(=O)N1CN1CCOCC1`, for which, for the setting “dose: 12.5 mg/kg/injection, schedule: Q01DX005 (ip), vehicle: water”, the T/C is 108 % of control and 111 % of control and 119 % of control.
For `COc1cc2c(cc1O)-c1oncc1CCC2`, the T/C under setting [3] was 94 % of control, the T/C under setting [4] is 98 % of control and the T/C under setting [5] is 95 % of control.
As for `O=C(Nc1ccc(S(=O)(=O)F)cc1)/C(=C/c1ccc([N+](=O)[O-])cc1)c1ccccc1`, the T/C (dose: 60.0 mg/kg/injection, schedule: Q01DX005 (ip), vehicle: saline with Tween-80) was 102 % of control and the T/C (dose: 120.0 mg/kg/injection, schedule: Q01DX005 (ip), vehicle: saline with Tween-80) was 97 % of control.
Take `CCOC1CC(=O)C2(C)C3CCC4(C)C(C(C)C5CC(C)=C(C)C(=O)O5)CCC4C3CC3OC32C1O` (stereo not given): the T/C reads like this: (dose: 9.12 mg/kg/injection, schedule: Q01DX009 (ip), vehicle: saline + alcohol) 101 % of control; (dose: 18.25 mg/kg/injection, schedule: Q01DX009 (ip), vehicle: saline + alcohol) 96 % of control; (dose: 36.5 mg/kg/injection, schedule: Q01DX009 (ip), vehicle: saline + alcohol) 100 % of control.
For `CSc1n[nH]c(C(F)(F)F)n1`, the T/C (dose: 30.0 mg/kg/injection, schedule: Q01DX005 (ip), vehicle: Klucel (hydroxypropylcellulose) (HPC)) is 105 % of control; the T/C under setting [6] is 103 % of control; the T/C under setting [7] is 95 % of control; the T/C under setting [8] was 94 % of control.
For the molecule `Cc1ccccc1C1(C)C(=O)c2ccccc2C1=O`, the T/C under setting [3] is 101 % of control, the T/C under setting [4] is 106 % of control and the T/C under setting [5] is 100 % of control.
For the molecule `O=C1CC(C2OCOC3COCOC32)CC(=O)N1` (stereo not given), the T/C is 111 % of control under setting [6], 109 % of control under setting [7] and 100 % of control under setting [8].
With `COc1cccc(OC)c1N(CCO)CCO`, the T/C runs as follows: under setting [9], 101 % of control; under setting [10], 95 % of control; under setting [11], 106 % of control.
As for `CCCc1onc(-c2noc(CCC)c2CC)c1CC`, the T/C was 100 % of control (dose: 60.0 mg/kg/injection, schedule: Q01DX005 (ip), vehicle: saline); 95 % of control (dose: 120.0 mg/kg/injection, schedule: Q01DX005 (ip), vehicle: saline); 103 % of control (dose: 240.0 mg/kg/injection, schedule: Q01DX005 (ip), vehicle: saline).
Take `O=C(CN(Cc1ccccc1)Cc1ccccc1)C(O)C1OC(c2ccccc2)OCC1O` (stereo not given): the T/C is, setting by setting: (dose: 50.0 mg/kg/injection, schedule: Q01DX005 (ip), vehicle: saline with Tween-80) 91 % of control; (dose: 100.0 mg/kg/injection, schedule: Q01DX005 (ip), vehicle: saline with Tween-80) 88 % of control; (dose: 200.0 mg/kg/injection, schedule: Q01DX005 (ip), vehicle: saline with Tween-80) 89 % of control.
With `O=c1cc[nH]c2c1ccc1[nH]ccc(=O)c12`, the T/C reads like this: under setting [6], 108 % of control; under setting [7], 99 % of control; under setting [8], 99 % of control.
Consider `COC(=O)C(NC(=O)C1CCCN1C(=O)OCc1ccccc1)C(C)C` (stereo not drawn) (Cbz-Pro-Val-OMe; configuration not given here), for which the T/C under setting [9] was 98 % of control, the T/C under setting [10] is 104 % of control and the T/C under setting [11] was 107 % of control.
As to `NC(=S)N/N=C\c1nccc2c(N)cccc12`, the T/C was 161 % of control (dose: 3.13 mg/kg/injection, schedule: Q01DX009 (ip), vehicle: saline); 153 % of control (dose: 6.25 mg/kg/injection, schedule: Q01DX009 (ip), vehicle: saline with Tween-80); 161 % of control (dose: 6.25 mg/kg/injection, schedule: Q01DX009 (ip), vehicle: saline); 162 % of control under setting [12]; 150 % of control and 166 % of control (dose: 12.5 mg/kg/injection, schedule: Q01DX009 (ip), vehicle: saline); 155 % of control (dose: 18.8 mg/kg/injection, schedule: Q04DX003 (ip), vehicle: saline). Moreover, the T/C was 167 % of control under setting [1]; 152 % of control and 155 % of control under setting [9]; 168 % of control and 181 % of control under setting [2]; 150 % of control (dose: 75.0 mg/kg/injection, schedule: Q01DX009 (ip), vehicle: saline with Tween-80); 155 % of control (dose: 75.0 mg/kg/injection, schedule: Q04DX003 (ip), vehicle: saline); 172 % of control (dose: 150.0 mg/kg/injection, schedule: Q04DX003 (ip), vehicle: saline).
Take `O=C1C=CC(=Nc2ccc3c(c2)C(Br)c2ccccc2-3)O1` (stereo not given): the T/C runs as follows: (dose: 4.0 mg/kg/injection, schedule: Q01DX009 (ip), vehicle: saline with Tween-80) 113 % of control; (dose: 6.0 mg/kg/injection, schedule: Q01DX009 (ip), vehicle: saline with Tween-80) 104 % of control; (dose: 6.25 mg/kg/injection, schedule: Q04DX003 (ip), vehicle: saline with Tween-80) 113 % of control; (dose: 9.0 mg/kg/injection, schedule: Q01DX009 (ip), vehicle: saline with Tween-80) 90 % of control; under setting [12], 113 % of control; (dose: 12.5 mg/kg/injection, schedule: Q04DX003 (ip), vehicle: saline with Tween-80) 100 % of control. The T/C (dose: 25.0 mg/kg/injection, schedule: Q04DX003 (ip), vehicle: saline with Tween-80) was 113 % of control.
On to `CCOC(=O)Nc1nc2ccc([N+](=O)[O-])cc2s1`, for which the T/C (dose: 6.25 mg/kg/injection, schedule: Q01DX009 (ip), vehicle: Klucel (hydroxypropylcellulose) (HPC)) was 104 % of control; the T/C (dose: 12.5 mg/kg/injection, schedule: Q01DX009 (ip), vehicle: Klucel (hydroxypropylcellulose) (HPC)) was 107 % of control; the T/C (dose: 25.0 mg/kg/injection, schedule: Q01DX009 (ip), vehicle: Klucel (hydroxypropylcellulose) (HPC)) was 105 % of control.
